Data taken from patent publication US8703776B2 (Cymabay Therapeutics, Inc., priority 2011, dated 2014).

biological target: T1, human GPR131 (Homo sapiens, UniProt Q8TDU6); assay: Stimulation of cAMP in stable cell line expressing human GPR131 (FRET cAMP kit); type: cell-based; conditions: 0.5 h; 1.1 μM compound, relative to maximal stimulatory activity of lithocholic acid at 3.3 μM; 30 minutes at 37° C.; read-out: Percent Activity @ 1.1 μM (of 3.3 uM LCA) (%)
T1 construct: expressed in transfected cells
T1 sequence (Q8TDU6 1-330): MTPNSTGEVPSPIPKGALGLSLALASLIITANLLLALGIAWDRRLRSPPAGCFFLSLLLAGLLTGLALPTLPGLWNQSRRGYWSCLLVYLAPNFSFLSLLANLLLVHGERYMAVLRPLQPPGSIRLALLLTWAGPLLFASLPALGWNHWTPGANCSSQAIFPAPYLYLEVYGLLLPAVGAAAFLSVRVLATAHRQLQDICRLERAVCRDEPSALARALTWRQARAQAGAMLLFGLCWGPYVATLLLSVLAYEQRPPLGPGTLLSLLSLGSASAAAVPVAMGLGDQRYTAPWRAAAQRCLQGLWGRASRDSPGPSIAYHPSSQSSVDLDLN
Procedure: This assay was developed using a stable cell line expressing human GPR131.
To measure cAMP activity in response to GPR131 agonists, GPR131 cells suspended in DMEM/F12 medium with 1 mM IBMX were seeded in 384 well plates at 5000 cells per well. After incubating with test compounds at 37° C. for 30 minutes cAMP was measured using a fluorescene resonance energy transfer cAMP kit from Cis Bio (Bedford, Mass.) according to the manufacturer's instructions. Briefly, cells were lysed, and cAMP levels determined by competitive immunoassay using D2 labeled cAMP, and europium cryptate tagged anti cAMP antibody. Decreases in the FRET signal (fluorescence ratio (665 nm/620 […]) correspond to increases in intracellular cAMP levels.
Activities of test compounds in Table 1 below are expressed as % activity at 1.1 μM compound compared to the maximal stimulatory activity of lithocholic acid (LCA) (determined at 3.3 μM LCA)

Row | SMILES | activation at 1.1 µM
1 | COc1ccc(CN(C)C(=O)c2cnc(SCc3c(F)ccc(F)c3F)n2-c2ccc(F)cc2)cc1OC [Compound 507, N-(3,4-Dimethoxybenzyl)-1-(4-fluorophenyl)-N-methyl-2-((2,3,6-trifluorobenzyl)thio)-1H-imidazole-5-carboxamide] | 93%
2 | Cc1nn(C)cc1CN(C)C(=O)c1cnc(SCc2c(F)cccc2Cl)n1-c1ccc(Cl)cc1 [Compound 553, 2-((2-Chloro-6-fluorobenzyl)thio)-1-(4-chlorophenyl)-N-((1,3-dimethyl-1H-pyrazol-4-yl)methyl)-N-methyl-1H-imidazole-5-carboxamide] | 100%
3 | COc1ccc(Cl)c(CSc2ncc(C(=O)N(C)Cc3cn(C)nc3C)n2-c2ccc(F)cc2)c1F [Compound 596, 2-((6-Chloro-2-fluoro-3-methoxybenzyl)thio)-N-((1,3-dimethyl-1H-pyrazol-4-yl)methyl)-1-(4-fluorophenyl)-N-methyl-1H-imidazole-5-carboxamide] | 100%
4 | Cc1nn(C)cc1CN(C)C(=O)c1cnc(SCc2ccn(C)n2)n1-c1ccc(F)cc1 [Compound 633, N-((1,3-Dimethyl-1H-pyrazol-4-yl)methyl)-1-(4-fluorophenyl)-N-methyl-2-(((1-methyl-1H-pyrazol-3-yl)methyl)thio)-1H-imidazole-5-carboxamide] | 93%
5 | Cc1nn(C)cc1CN(C)C(=O)c1cnc(SCc2ncccn2)n1-c1ccc(F)cc1 [Compound 635, N-((1,3-Dimethyl-1H-pyrazol-4-yl)methyl)-1-(4-fluorophenyl)-N-methyl-2-((pyrimidin-2-ylmethyl)thio)-1H-imidazole-5-carboxamide] | 98%
6 | CN(Cc1ccncc1)C(=O)c1cnc(SCc2c(Cl)cccc2Cl)n1-c1ccc(F)cc1 [Compound 561, 2-((2,6-Dichlorobenzyl)thio)-1-(4-fluorophenyl)-N-methyl-N-(pyridin-4-ylmethyl)-1H-imidazole-5-carboxamide] | 95%
7 | CN(Cc1cnn(C)c1)C(=O)c1cnc(SCc2c(F)ccc(F)c2F)n1-c1ccc(F)cc1 [Compound 520, 1-(4-Fluorophenyl)-N-methyl-N-((1-methyl-1H-pyrazol-4-yl)methyl)-2-((2,3,6-trifluorobenzyl)thio)-1H-imidazole-5-carboxamide] | 98%
8 | Cc1nn(C)cc1CN(C)C(=O)c1cnc(CSCc2c(F)ccc(F)c2F)n1-c1ccc(F)cc1 [Compound 572, N-((1,3-Dimethyl-1H-pyrazol-4-yl)methyl)-1-(4-fluorophenyl)-N-methyl-2-(((2,3,6-trifluorobenzyl)thio)methyl)-1H-imidazole-5-carboxamide] | 88%
9 | Cc1nc(C)c(CN(C)C(=O)c2cnc(SCc3c(F)ccc(F)c3F)n2-c2ccc(F)cc2)s1 [Compound 522, N-((2,4-Dimethylthiazol-5-yl)methyl)-1-(4-fluorophenyl)-N-methyl-2-((2,3,6-trifluorobenzyl)thio)-1H-imidazole-5-carboxamide] | 100%
10 | Cc1csc(CSc2ncc(C(=O)N(C)Cc3cn(C)nc3C)n2-c2ccc(F)cc2)n1 [Compound 636, N-((1,3-Dimethyl-1H-pyrazol-4-yl)methyl)-1-(4-fluorophenyl)-N-methyl-2-(((4-methylthiazol-2-yl)methyl)thio)-1H-imidazole-5-carboxamide] | 98%
11 | CN(Cc1ccncc1)C(=O)c1cnc(SCc2cc(F)ccc2F)n1-c1ccc(F)cc1 [Compound 611, 2-((2,5-Difluorobenzyl)thio)-1-(4-fluorophenyl)-N-methyl-N-(pyridin-4-ylmethyl)-1H-imidazole-5-carboxamide] | 99%
12 | CN(Cc1ccncc1)C(=O)c1cnc(SCc2c(F)cccc2Cl)n1-c1ccccc1 [Compound 555, 2-((2-Chloro-6-fluorobenzyl)thio)-N-methyl-1-phenyl-N-(pyridin-4-ylmethyl)-1H-imidazole-5-carboxamide] | 100%
13 | Cc1nn(C)cc1CN(C)C(=O)c1cnc(SCc2c(F)cccc2Cl)n1-c1ccc(F)cc1 [Compound 532, 2-((2-Chloro-6-fluorobenzyl)thio)-N-((1,3-dimethyl-1H-pyrazol-4-yl)methyl)-1-(4-fluorophenyl)-N-methyl-1H-imidazole-5-carboxamide] | 100%
14 | CN(Cc1ccncc1)C(=O)c1cnc(SCc2cccc(C(F)(F)F)c2F)n1-c1ccc(F)cc1 [Compound 610, 2-((2-Fluoro-3-(trifluoromethyl)benzyl)thio)-1-(4-fluorophenyl)-N-methyl-N-(pyridin-4-ylmethyl)-1H-imidazole-5-carboxamide] | 100%
15 | Cc1cc(CN(C)C(=O)c2cnc(SCc3ccccc3Cl)n2-c2ccc(F)cc2)ccn1 [Compound 550, 2-((2-Chlorobenzyl)thio)-1-(4-fluorophenyl)-N-methyl-N-((2-methylpyridin-4-yl)methyl)-1H-imidazole-5-carboxamide] | 98%
16 | CN(Cc1ccncc1)C(=O)c1cnc(SCc2cc(F)c(F)cc2Cl)n1-c1ccc(F)cc1 [Compound 618, 2-((2-Chloro-4,5-difluorobenzyl)thio)-1-(4-fluorophenyl)-N-methyl-N-(pyridin-4-ylmethyl)-1H-imidazole-5-carboxamide] | 94%
17 | Cc1nn(C)cc1CN(C)C(=O)c1cnc(SCC(=O)c2ccccc2)n1-c1ccc(F)cc1 [Compound 525, N-((1,3-Dimethyl-1H-pyrazol-4-yl)methyl)-1-(4-fluorophenyl)-N-methyl-2-((2-oxo-2-phenylethyl)thio)-1H-imidazole-5-carboxamide] | 96%
18 | Cc1nn(C)cc1CN(C)C(=O)c1cnc(COc2c(F)ccc(F)c2F)n1-c1ccc(F)cc1 [Compound 568, N-((1,3-Dimethyl-1H-pyrazol-4-yl)methyl)-1-(4-fluorophenyl)-N-methyl-2-((2,3,6-trifluorophenoxy)methyl)-1H-imidazole-5-carboxamide] | 83%
19 | Cc1nn(C)cc1CN(C)C(=O)c1cnc(Br)n1-c1ccc(F)cc1 [Compound 590, 2-Bromo-N-((1,3-dimethyl-1H-pyrazol-4-yl)methyl)-1-(4-fluorophenyl)-N-methyl-1H-imidazole-5-carboxamine] | 86%
20 | Cc1cc(CN(C)C(=O)c2c(C)nc(SCc3c(F)ccc(F)c3F)n2-c2ccc(F)cc2)ccn1 [Compound 585, 1-(4-Fluorophenyl)-N-4-dimethyl-N-((2-methylpyridin-4-yl)methyl)-2-((2,3,6-trifluorobenzyl)thio)-1H-imidazole-5-carboxamide] | 97%
21 | CN(Cc1ccncc1)C(=O)c1cnc(CCc2c(F)ccc(F)c2F)n1-c1ccc(F)cc1 [Compound 528, 1-(4-Fluorophenyl)-N-methyl-N-(pyridin-4-ylmethyl)-2-(2,3,6-trifluorophenethyl)-1H-imidazole-5-carboxamide] | 95%
22 | Cc1nn(C)cc1CN(C)C(=O)c1cnc(SCc2ncn(C)n2)n1-c1ccc(F)cc1 [Compound 634, N-((1,3-Dimethyl-1H-pyrazol-4-yl)methyl)-1-(4-fluorophenyl)-N-methyl-2-(((1-methyl-1H-1,2,4-triazol-3-yl)methyl)thio)-1H-imidazole-5-carboxamide] | 91%
23 | CN(Cc1cccnc1)C(=O)c1cnc(SCc2c(F)ccc(F)c2F)n1-c1ccc(F)cc1 [Compound 603, 1-(4-Fluorophenyl)-N-methyl-N-(pyridin-3-ylmethyl)-2-((2,3,6-trifluorobenzyl)thio)-1H-imidazole-5-carboxamide] | 82%
24 | CCN(Cc1cn(C)nc1C)C(=O)c1cnc(SCc2c(F)ccc(F)c2F)n1-c1ccc(F)cc1 [Compound 519, N-((1,3-Dimethyl-1H-pyrazol-4-yl)methyl)-N-ethyl-1-(4-fluorophenyl)-2-((2,3,6-trifluorobenzyl)thio)-1H-imidazole-5-carboxamide] | 100%
25 | CN(Cc1ccncc1)C(=O)c1cnc(SCc2c(F)ccc(F)c2Cl)n1-c1ccc(F)cc1 [Compound 617, 2-((2-Chloro-3,6-difluorobenzyl)thio)-1-(4-fluorophenyl)-N-methyl-N-(pyridin-4-ylmethyl)-1H-imidazole-5-carboxamide] | 99%
26 | Cc1nn(C)cc1CN(C)C(=O)c1cnc(SCc2nc3ccccc3o2)n1-c1ccc(F)cc1 [Compound 629, 2-((Benzo[d]oxazol-2-ylmethyl)thio)-N-((1,3-dimethyl-1H-pyrazol-4-yl)methyl)-1-(4-fluorophenyl)-N-methyl-1H-imidazole-5-carboxamide] | 100%
27 | CCN(Cc1ccncc1)C(=O)c1cnc(SCc2c(Cl)ccc(OC)c2F)n1-c1ccc(F)cc1 [Compound 626, 2-((6-Chloro-2-fluoro-3-methoxybenzyl)thio)-N-ethyl-1-(4-fluorophenyl)-N-(pyridin-4-ylmethyl)-1H-imidazole-5-carboxamide] | 100%
